Values of other authors as cited in US20170001953A1, “FUMARATE COMPOUNDS, PHARMACEUTICAL COMPOSITIONS THEREOF, AND METHODS OF USE” (priority 2015, published 2017).

aqueous solubility: poor
SMILES: COC(=O)/C=C/C(=O)OC [DMF, dimethylfumarate]
